Reference: ChEMBL document CHEMBL1157539, “Thousands of chemical starting points for antimalarial lead identification” (Nature, 2010)

Test system: Plasmodium falciparum
Assay: GSK_TCMDC: Inhibition of Plasmodium falciparum 3D7 in whole erythrocytes, using parasite LDH activity as an index of growth.
Assay type: functional, organism-based
Conditions: Plasmodium falciparum, 3D7

| Structure (SMILES) | XC50 |
| --- | --- |
| COc1ccc2nc(C)cc(N/N=C/c3ccc([N+](=O)[O-])o3)c2c1 | 698 nM |
| COc1cc2c(Nc3ccc(NC(=O)c4ccccc4)cc3)ncnc2cc1OCCCN1CCOCC1 | 648 nM |
| CCN(CC)CCN(Cc1ccc(-c2ccc(Cl)s2)cc1)C(=O)Cn1c(CCc2cccc(F)c2F)nc(=O)c2ccccc21 | 1140 nM |
| Cc1ccc(C)c(Cn2ccc3nc(Cl)nc(Cl)c32)c1 | 911 nM |
| CN(C)CC(O)C(c1ccccc1)c1cccc(Br)c1 (stereo not drawn) | 164 nM |
| Cc1noc(-c2ccc3c(c2)CCN(CCC2CCC(NC(=O)/C=C/c4cccc(Cl)c4)CC2)CC3)n1 (stereo not drawn) | 998 nM |
| Cc1cc(NC(=O)c2sc3ccccc3c2O)no1 | 809 nM |
| COc1ccccc1CNc1ccnc(N2CC(Oc3ccc(F)cc3)C2)n1 | 850 nM |
| Cc1ccc(NC(=O)c2ccc(CN3CCCN(Cc4cccc(C#N)c4)CC3)cc2)cc1F | 592 nM |
| Cc1ccc(NC(=O)c2ccc3ncccc3c2)cc1OC1CCN(Cc2ccc(F)cc2)CC1 | 944 nM |
| Cn1c(=N)n(CC(=O)N2CCc3ccc(Cl)cc3C2Cc2ccc(Cl)c(Cl)c2)c2ccccc21 (stereo not drawn) | 869 nM |
| COc1ccc(N2CCN(CCCNC(=O)c3ccc(NC(=O)c4cc(Cl)cc(Cl)c4)cc3)CC2)c(OC)c1 | 269 nM |
| CCNc1cc(C)nc(Nc2ccc(NC(=O)c3cccs3)cc2)n1 | 1020 nM |
| CN(Cc1ccc(NC(=O)NC2CCN(C(=O)/C=C/c3ccc(Cl)c(Cl)c3)CC2)cc1)C1CCOCC1 | 876 nM |
| CCN1CCN(CCCNc2c3ccc(Cl)cc3nc3ccc(OC)cc23)CC1 | 149 nM |
| O=C(Nc1cc2cc(-c3ccc(CN4CCCCC4)cc3)ccc2n2cnnc12)NC1CCCC1 | 1520 nM |
| CCCc1cc(C(C)=O)ccc1OCCCON1C(=N)N=C(N)NC1(C)C | 4.57 nM |
| CS(=O)(=O)Cc1ccc(Nc2nccc(N3CCCc4cc(NC(=O)Nc5cccc(C(F)(F)F)c5)ccc43)n2)cc1 | 148 nM |
| Cc1nc(-c2ccc(-c3ccc(C(=O)Nc4ccc5c(c4)C4(CCNCC4)CO5)cc3)c(C)c2)no1 | 858 nM |
| COc1ccc(C(=O)COc2cccc(/C=C/C(=O)O)c2)cc1OC | 1320 nM |
| COC(=O)c1ccc(CC(C)NCC(O)c2cccc(SC(F)(F)F)c2)cc1 (stereo not drawn) | 887 nM |
| COc1ccc2nccc([C@@H](O)CN3CCC(NCc4nc5ccc(F)cc5[nH]4)CC3)c2c1 | 732 nM |
| O=c1cc(NCCCNC(CNCCc2ccccc2)c2cc(Br)cc(Br)c2)[nH]c2ccccc12 (stereo not drawn) | 864 nM |
| CCOc1cccc2nc(NCCCNCc3ccc(Cl)c(Cl)c3)cc(NCCCNCc3ccc(Cl)c(Cl)c3)c12 | 574 nM |
| Cn1c(=O)c2cc(C(=O)NCCCN3CCCCCC3)sc2c2ccccc21 | 689 nM |

| Structure (SMILES) | XC50 |
| --- | --- |
| N#Cc1ccc(N(CCOC(=O)c2ccccc2)Cc2ccccc2C(F)(F)F)cc1C(F)(F)F | 921 nM |
| Clc1cccc(CNc2nc(NCCc3c[nH]cn3)nc(NC3CCCCC3)n2)c1 | 790 nM |
| CC(Cc1ccc(OCCN2CCN(c3cccc(Cl)c3)CC2)cc1)NCC(O)c1cccc(C(F)(F)F)c1 (stereo not drawn) | 602 nM |
| CCc1c[nH]c2c(N3CCCC3=O)cc(C(=O)N[C@@H](Cc3ccccc3)[C@H](O)CNC(C)(C)c3cccc(C(F)(F)F)c3)cc12 | 115 nM |
| CN1CCC(NCc2ccc(-c3cccc(S(=O)(=O)NCc4ccccc4)c3)cc2)CC1 | 324 nM |
| COc1cc(C)nc2ccc(NC(=O)Nc3ccccc3[N+](=O)[O-])cc12 | 837 nM |
| CCC(CC)n1c(COC)cc2c3c(N)nc(N)nc3ccc21 | 5.57 nM |
| CCCc1cc(NC2CCN(C)CC2)nc(Nc2ccc(C)cc2)n1 | 898 nM |
| O=C(N[C@H]1CCN(CCc2ccc(O[C@H]3CCNC3)cc2)C1)c1ccc(Cl)c(Cl)c1 | 828 nM |
| c1ccc(CSC2=NNC(c3ccccn3)S2)cc1 (stereo not drawn) | 1480 nM |
| O=C(NCC1CCC1)c1cnc(Nc2cccc(Cl)c2)nc1N1CCC1 | 862 nM |
| COc1cc(C=CC(=O)N2CCC3(CC2)CC(=O)c2ccccc2O3)cc(OC)c1OC | 761 nM |
| CN1CCN(C(C(=O)NCc2cc(Cl)cc(Cl)c2)c2ccc(NC(=O)Nc3ccccc3)cc2)CC1 (stereo not drawn) | 692 nM |
| COc1cc(NC(=O)CCCCCCCN2CCN(C)CC2)c2ncccc2c1 | 611 nM |
| Nc1nccc2ccc(-c3cccc(O)c3)cc12 | 642 nM |
| CN(C(=O)/C=C/c1ccccc1F)C1CCN(CCCCCNC(=O)/C=C/c2ccc(Cl)c(Cl)c2)CC1 | 509 nM |
| Oc1ccc(CCNCCCCCCNCCc2ccc(-c3ccccc3)cc2)cc1O | 603 nM |
| CCCN(CC(=O)NCCc1ccccc1)c1ccc(C#N)c2ccccc12 | 500 nM |
| CCn1c(-c2nonc2N)nc2cnc(Oc3cccc(NC(=O)c4ccc(OCCCN5CCCCC5)cc4)c3)cc21 | 925 nM |
| Cc1ccc(O)cc1Nc1ccnc2ccc(-c3csc(CNCCN4CCOCC4)n3)cc12 | 153 nM |
| CC(C)[C@H](NC(=O)c1ccc(O)c(-c2ccc(Cl)c(Cl)c2)c1)C(=O)NCCN1CCCC1 | 929 nM |
| Clc1ccc(CNCCCCCCNCc2ccc(Cl)cc2)cc1 | 845 nM |
| CCN(CCCN1CCCCC1)c1cc(C)nc(Nc2ccc(C)cc2Cl)n1 | 339 nM |
| CN(C)Cc1ccc(-c2ccc3ccnc(N)c3c2)cc1 | 380 nM |
| CCc1nc2c(cnn2CC)c(NC2CCOCC2)c1CNC(=O)N1CCOCC1 | 892 nM |

| Structure (SMILES) | XC50 |
| --- | --- |
| O=C1CCCC1Sc1nc2ccccc2c(=O)n1-c1ccc(Cl)c(Cl)c1 (stereo not drawn) | 726 nM |
| O=C(NC1CCCCN(Cc2ccccc2O)C1)c1cccc(Cl)c1 (stereo not drawn) | 1060 nM |
| COc1cccc2cc(C(=O)N[C@@H](CC(C)C)C(=O)N[C@H](/C=N/N3C(=O)CN(Cc4ccccc4)C3=O)CCc3ccccc3)oc12 | 618 nM |
| CC1(C)C(=O)Nc2ccc3c(c21)CC1SC(=O)NN=C31 (stereo not drawn) | 1490 nM |
| CC(=O)Nc1sc(C)c(C)c1CN1CCc2ccccc2C1 | 616 nM |
| c1ccc2c(CNc3ccnc(NCc4cccc5ccccc45)n3)cccc2c1 | 559 nM |
| N#Cc1ccc(C(=O)NC2CCN(CCCCCNC(=O)/C=C/c3ccc(Cl)c(Cl)c3)CC2)cc1 | 836 nM |
| COc1ccc(OC)c(Cc2cnc3nc(N)[nH]c(=O)c3c2C)c1 | 357 nM |
| CN1CCCN(Cc2ccc(-c3cccc(NC(=O)c4ccc(Cl)cc4)c3)cc2)CC1 | 610 nM |
| O=C(Nc1cccc(-c2nn3ccccc3c2-c2ccnc(Nc3cccc(N4CCCC4=O)c3)n2)c1)c1cc(F)ccc1F | 212 nM |
| CCOC(=O)CN1Cc2cc(NCc3ccc4ccc5nc(C)[nH]c(=O)c5c4c3)ccc2C1=O | 700 nM |
| CCC1CN2CCc3c([nH]c4ccccc34)C2CC1CC1=NCCc2c1[nH]c1ccccc21 (stereo not drawn) | 737 nM |
| CCN(CC)CCOC(=O)c1ccc(NC(=O)c2cn(-c3ccccc3)nc2-c2cccs2)cc1 | 379 nM |
| CCN(CCNc1nc(NCCc2cnc[nH]2)nc(N(CCC#N)Cc2ccccc2)n1)c1cccc(C)c1 | 715 nM |
| CCOC(=O)CCc1cc(F)c(F)c(OC[C@H](O)CNC(C)(C)C(O)c2ccc3ccccc3c2)c1 (stereo partly drawn) | 859 nM |
| O=C(NCCCN1CCN(c2cccc(Cl)c2)CC1)c1ccc(-c2nc3cc(Cl)c(Cl)cc3[nH]2)cc1 | 697 nM |
| O=C(Nc1ccc(OC2CCN(Cc3ccc(F)cc3)C2)c(Cl)c1)c1ccoc1 (stereo not drawn) | 938 nM |
| COc1cc(CC2c3cc(O)c(Cl)cc3CCN2C)c(OC)cc1C (stereo not drawn) | 713 nM |
| O=C(Nc1ccc2nc3n(c(=O)c2c1)CCCCC3)C(=O)N1CCN(c2ccc(F)cc2)CC1 | 636 nM |
| N=C(N)NC(=O)Nc1cc(Cl)c(Br)c(Cl)c1 | 469 nM |
| Cc1cc(C)c2cc(CNCCCNc3nc4ccccc4[nH]3)[nH]c2c1 | 768 nM |
| COc1ccc2nccc([C@@H](O)CN3CCC(NC(=O)C(c4cc5ccccc5o4)N4CCN(c5ccccc5OC)CC4)CC3)c2c1 (stereo partly drawn) | 308 nM |
| Cc1ccc(N2C(=O)C3C(C2=O)C2(c4ccccc4)C(=O)C3(c3ccccc3)C(c3ccccc3)=C2c2ccccc2)c(C)c1 (stereo not drawn) | 529 nM |
| CC(=O)N(Cc1ccc(CC(C)NCCc2cccc(Cl)c2)cc1)Cc1ccc(CC(C)NCCc2cccc(Cl)c2)cc1 (stereo not drawn) | 783 nM |
| CN(C(=O)c1ccccc1)C1c2cc(C#N)ccc2OC(C)(C)C1O (stereo not drawn) | 654 nM |

| Structure (SMILES) | XC50 |
| --- | --- |
| NS(=O)(=O)c1cccc(-c2ccc3ncc(N4CCOCC4)nc3c2)c1 | 987 nM |
| CCCCn1c(N)c(N(Cc2ccco2)C(=O)C=Cc2cc(OC)c3c(c2)OCCO3)c(O)nc1=O | 946 nM |
| CN1CCC(C(=O)Nc2ccc(-c3ccc(-c4nc5ccccc5[nH]4)cc3)cc2)CC1 | 976 nM |
| Cc1ccc(CC(C)NCC(O)c2cccc(Cl)c2)cc1F (stereo not drawn) | 742 nM |
| N#Cc1ccc(NC(=O)N2CCCN(CCCCCNC(=O)/C=C/c3ccc(Cl)c(Cl)c3)CC2)cc1 | 768 nM |
| Cc1ccnc(Nc2nc(-c3ccccn3)cs2)c1 | 998 nM |
| COCCN1CCC(CN(C)CC(C)(C)c2nc(-c3ccc(Cl)c(O)c3)c(-c3ccncc3)[nH]2)CC1 | 1030 nM |
| O=C(c1ccc(O)c(-c2cc(Cl)cc(Cl)c2)c1)N1CCCC1 | 1000 nM |
| Nc1cccc(CNCc2ccc(-c3ccc(-c4nc5cc(F)ccc5[nH]4)s3)cc2)c1 | 992 nM |
| O=C(Nc1cccc(C(F)(F)F)c1)c1ccc(S(=O)(=O)NCC2CCN(CC3CCCCC3)CC2)cc1 | 320 nM |
| CC1=C(C(=O)OCCOCc2ccccc2)C(c2ccccc2C(F)(F)F)C(C(=O)OCCOCc2ccccc2)=C(C)N1 | 532 nM |
| O=C(Cc1cccc(Cl)c1)N1CCc2cc3nccc(N4CCN5CCC[C@H]5C4)c3cc21 | 854 nM |
| CC(C)(C)c1cc(C(=O)N2CCN(c3ncnc4ccsc34)CC2)n(Cc2ccccc2)n1 | 907 nM |
| COc1ccc(C2C(C(=O)OC3CCCCC3)=C(C)NC3=C2C(=O)CCC3)cc1Br (stereo not drawn) | 579 nM |
| COc1cc(CCCOc2c(N)nc(N)nc2N)cc(OC)c1OC | 1220 nM |
| COc1ccc2nccc([C@@H](O)CN3CCC(NCCOc4ccccc4C#N)CC3)c2c1 | 398 nM |
| COc1ccc(Nc2ncc3c(-c4ccc(NC(=O)c5cccc(C(F)(F)F)c5)cc4)c[nH]c3n2)cc1OC | 1030 nM |
| CCn1c(-c2nonc2N)nc2c(-c3cccc(NC(=O)Nc4ccccc4OC)c3)ncc(OCCCN)c21 | 1000 nM |
| COc1cccc(CCc2nc3c(N4CCC(Cc5ccccc5)CC4)cccc3n2CC2CNCCO2)c1 (stereo not drawn) | 800 nM |
| Cn1c(NC(=O)CCCCCNC(=O)c2ccc(O)c(-c3ccc(Cl)c(Cl)c3)c2)nc2ccccc21 | 726 nM |
| O=C(N[C@@H](Cc1ccccc1)[C@H](O)CNC1CCCCC1)c1cc(C2CCCC2)cc(N2CCCC2=O)c1 | 169 nM |
| CN(c1ccc2c(c1)nc(NCc1ccc(F)cc1)n2C)c1ccnc(Nc2ccc(CS(C)(=O)=O)cc2)n1 | 828 nM |
| COc1ccc(CNCC(C)(C)c2nc(-c3ccc(Cl)c(O)c3)c(-c3ccncc3)[nH]2)cc1 | 357 nM |
